Numbers after ± are expanded uncertainties.
What was measured:
[1] = cn = amount concentration of the nth substance listed, in mol/dm3; conditions: 100 kPa, Liquid, Capillary tube (Ostwald / Ubbelohde) method
[2] = mn = molality of the nth substance listed, in mol/kg; conditions: 100 kPa, Liquid, Capillary tube (Ostwald / Ubbelohde) method
[3] = 100 kPa, Liquid, Capillary tube (Ostwald / Ubbelohde) method

O=C(CO)[C@@H](O)[C@H](O)[C@H](O)CO [D-fructose] + O
viscosity [mPa·s], [1]
Conditions | c1 = 0.0628 | c1 = 0.06594 | c1 = 0.08345 | c1 = 0.1124 | c1 = 0.1285 | c1 = 0.1523
288.15 K | 1.174 ± 0.12 | 1.175 ± 0.12 | 1.185 ± 0.12 | 1.201 ± 0.12 | 1.209 ± 0.12 | 1.222 ± 0.12
298.15 K | 0.916 ± 0.092 | 0.917 ± 0.092 | 0.924 ± 0.093 | 0.935 ± 0.094 | 0.941 ± 0.094 | 0.951 ± 0.095
308.15 K | 0.739 ± 0.074 | 0.74 ± 0.074 | 0.745 ± 0.075 | 0.754 ± 0.076 | 0.759 ± 0.076 | 0.766 ± 0.077
318.15 K | 0.61 ± 0.061 | 0.611 ± 0.061 | 0.614 ± 0.062 | 0.621 ± 0.062 | 0.624 ± 0.063 | 0.629 ± 0.063

O=P([O-])(O)O.[Na+] [sodium dihydrogen phosphate] + O
viscosity [mPa·s], [2]
Conditions | 288.15 K | 298.15 K | 308.15 K | 318.15 K
m1 = 0.5 | 1.427 ± 0.14 | 1.093 ± 0.11 | 0.88 ± 0.088 | 0.723 ± 0.073
m1 = 1 | 1.731 ± 0.17 | 1.332 ± 0.13 | 1.074 ± 0.11 | 0.875 ± 0.088
m1 = 1.5 | 2.139 ± 0.21 | 1.63 ± 0.16 | 1.267 ± 0.13 | 1.051 ± 0.11
m1 = 2 | 2.65 ± 0.27 | 1.987 ± 0.2 | 1.457 ± 0.15 | 1.257 ± 0.13

O=P([O-])([O-])[O-].[K+].[K+].[K+] [tripotassium phosphate] + O
viscosity [mPa·s], [2]
Conditions | 288.15 K | 298.15 K | 308.15 K | 318.15 K
m1 = 0.5 | 1.414 ± 0.14 | 1.133 ± 0.11 | 0.915 ± 0.092 | 0.708 ± 0.071
m1 = 1 | 1.7 ± 0.17 | 1.349 ± 0.14 | 1.09 ± 0.11 | 0.838 ± 0.084
m1 = 1.5 | 2.004 ± 0.2 | 1.598 ± 0.16 | 1.281 ± 0.13 | 1.003 ± 0.1
m1 = 2 | 2.299 ± 0.23 | 1.806 ± 0.18 | 1.441 ± 0.14 | 1.116 ± 0.11

O [water]
[3]
Conditions | viscosity [mPa·s]
288.15 K | 1.138 ± 0.11
298.15 K | 0.89 ± 0.089
308.15 K | 0.719 ± 0.072
318.15 K | 0.596 ± 0.06

CO[C@H]1O[C@H](CO)[C@@H](O)[C@H](O)[C@@H]1O [α-methyl mannopyranoside] + O
viscosity [mPa·s], [2]
Conditions | m1 = 0.05551 | m1 = 0.0769 | m1 = 0.09681 | m1 = 0.1166 | m1 = 0.1344 | m1 = 0.1466 | m1 = 0.1632
288.15 K | 1.172 ± 0.12 | 1.185 ± 0.12 | 1.197 ± 0.12 | 1.209 ± 0.12 | 1.22 ± 0.12 | 1.227 ± 0.12 | 1.237 ± 0.12
298.15 K | 0.916 ± 0.092 | 0.925 ± 0.093 | 0.934 ± 0.094 | 0.943 ± 0.094 | 0.951 ± 0.095 | 0.956 ± 0.096 | 0.964 ± 0.097
308.15 K | 0.739 ± 0.074 | 0.746 ± 0.075 | 0.753 ± 0.075 | 0.76 ± 0.076 | 0.766 ± 0.077 | 0.77 ± 0.077 | 0.775 ± 0.078
318.15 K | 0.611 ± 0.061 | 0.617 ± 0.062 | 0.623 ± 0.062 | 0.628 ± 0.063 | 0.633 ± 0.063 | 0.636 ± 0.064 | 0.64 ± 0.064

From the NIST ThermoML archive (doi:10.1021/acs.jced.5b00845)
